Results: paper PMC3103432, “Effect of reverse transcriptase inhibitors on LINE-1 and Ty1 reverse transcriptase activities and on LINE-1 retrotransposition” (BMC Biochemistry, 2011)
Read-outs that look alike come from different tables or passages of the source. Marks after values point to notes of the source that are not given here. Blank lines part the entries; values can stand above or below the compound they belong to.

Experiments:
[1] = system: ORFeus-Hs (synthetic human L1) retrotransposition in HeLa cells; assay: Cell-based L1 retrotransposition assay, ORFeus-Hs
Method: (§1) The cell-based retrotransposition assay was conducted as described. HeLa cells (a gift from Dr. John Moran, University of Michigan) were seeded in 6-well dishes in DMEM (2×10^5 cells/well). The next day cells were transfected with Fugene 6 according to the manufacturer's manual. Each transfection consisted of 96 μl Opti-Mem, 1 μg pWA195 DNA and 3 μl Fugene 6. Sixteen hours after transfection, the cells were trypsinized and transferred to a 6 cm plate in DMEM with 2.5 μg/ml puromycin and the RT inhibitors. Three days after puromycin selection, dead cells were removed and puromycin resistant cells were trypsinized and counted with a hemocytometer. The puromycin resistant cells were plated on a 10 cm plate (1×10^4 cells/plate) in 10 ml DMEM with 500 μg/ml G418. The RT inhibitors were added to the same concentration as in the puromycin selection. […] Two weeks later, G418 resistant cells were fixed to the plate and stained with 0.1% crystal violet. The number of G418 resistant colonies was counted to calculate retrotransposition frequency. Six independent assays were done for each RT inhibitor.

[2] = target: T1, Ty1 RT (Saccharomyces cerevisiae, UniProt Q99231); assay: In vitro RT assay with recombinant Ty1 RT; type: biochemical; details: for increase of Ty1 RT activity: at low concentrations; for high concentration at which Ty1 RT was inhibited: inhibited only at this high concentration
T1 construct: recombinant Ty1 RT, which required C-terminal residues of integrase for its RT activity; made in house; host or cells: E. coli BL21 (co-transformed with chaperone plasmid pG-Tf2)
T1 sequence (Q99231 1103-1755): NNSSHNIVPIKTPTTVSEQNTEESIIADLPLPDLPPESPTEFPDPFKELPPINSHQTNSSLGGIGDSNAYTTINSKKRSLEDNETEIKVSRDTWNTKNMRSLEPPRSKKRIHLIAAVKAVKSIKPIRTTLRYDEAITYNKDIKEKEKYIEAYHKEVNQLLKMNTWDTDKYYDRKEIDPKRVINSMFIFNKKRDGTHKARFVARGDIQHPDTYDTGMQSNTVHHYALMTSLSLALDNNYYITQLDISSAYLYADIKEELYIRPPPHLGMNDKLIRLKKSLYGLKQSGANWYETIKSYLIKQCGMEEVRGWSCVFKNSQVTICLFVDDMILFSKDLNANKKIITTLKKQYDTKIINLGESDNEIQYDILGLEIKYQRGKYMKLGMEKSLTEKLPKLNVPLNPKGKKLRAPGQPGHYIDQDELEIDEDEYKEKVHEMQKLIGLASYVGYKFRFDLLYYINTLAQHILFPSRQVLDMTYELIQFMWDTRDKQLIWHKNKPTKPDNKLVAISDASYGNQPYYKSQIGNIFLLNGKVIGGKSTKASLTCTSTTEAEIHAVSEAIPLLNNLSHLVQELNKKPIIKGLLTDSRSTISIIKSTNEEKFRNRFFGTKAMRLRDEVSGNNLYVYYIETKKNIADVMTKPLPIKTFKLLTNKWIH
Method: (§2) The RT assays for HIV-1 and L1 RT were performed in a 20 μl reaction mixtures containing 50 mM Tris-Cl (pH 8.0), 50 mM KCl, 5 mM MgCl2, 10 mM DDT, 0.01 U template/primer, 1 μl [α-^32P] dTTP or [α-^32P] dCTP (final concentration 0.17 μM, 3000 Ci/mmol, 10 mCi/ml) at 37°C for 30 min. Then the mixture was spotted on DE81 paper and washed three times with 2×SSC buffer for a total time of 30 min. The DE81 paper was dried and counted by scintillation counter Beckman LS6000SC. RT assay for Ty1 RT was done under the same buffer condition except that 20 mM MgCl2 was used and the reaction mixture was incubated at room temperature. In each reaction the amounts of L1, HIV-1 and Ty1 RTs with the same specific activity were added. To test the inhibition of the RT inhibitors, 1 μl inhibitor was included in the mixture to obtain the desired concentration. […] All assays were done at least in triplicate.

[3] = target: T2, human L1 reverse transcriptase (MBP-RT fusion) (Homo sapiens, UniProt O00370); assay: In vitro (cell-free) RT assay and kinetic analysis with recombinant L1 RT; type: biochemical; details: for IC50: calculated as IC50 = Ki(1+ S/Km), read-out: IC50 against L1 RT; for Ki: competitive with respect to dTTP (AZTTP, d4TTP) or dCTP (ddCTP, 3TCTP), Lineweaver-Burk, read-out: Ki against L1 RT; for high concentration at which L1 RT was inhibited: inhibited only at this high concentration; for inhibition of L1 RT activity: concentrations as high as 500 μM
T2 construct: Human L1 ORF2 amino acid 238-1061 was inserted behind MBP gene in frame; made in house; host or cells: E. coli BL21
Method: as §2
The kinetic analysis was performed under the same conditions described above but with various concentrations of substrates and inhibitors as indicated in the text. Poly (rA)-oligo (dT)12-18 and [α-^32P] dTTP were used to analyze AZTTP and d4TTP. Poly (rI)-oligo (dC)12-18 and [α-^32P] dCTP were used to assay ddCTP and 3TCTP.

[4] = system: ORFeus-Mm (synthetic mouse L1) retrotransposition; assay: Cell-based L1 retrotransposition assay, ORFeus-Mm; details: control = 1.0, normalized to cell viability
Method: as §1

[5] = system: HIV-1; parameters: method as in PMID 2413459; details: cited from earlier work
[6] = system: HeLa cells; assay: Cell cytotoxicity of RT inhibitors; type: cell-based, human
Method: Untransfected Hela cells were plated on 10 cm plate (500 cells/plate) with and without RT inhibitors. Ten days later, cells were fixed to the plate and stained with 0.1% crystal violet. The number of colonies was counted to calculate colony formation ability. Colony formation ability of control assay without inhibitors was considered as 1.0 and colony formation ability in the presence of inhibitors was indicated as relative efficiency with respect to the control.

[7] = system: HIV-1 RT; details: read-out: IC50 against HIV-1 RT; previously reported; cited from earlier work
[8] = system: AMV RT, MLV RT, human DNA polymerases α, β, γ and Klenow fragment; details: cited from earlier work
[9] = system: HIV-1 mutants (substitutions at positions 103, 106, 181, 188 and 190); parameters: method as in PMID 17370068; details: cited from earlier work
[10] = target: T1, Ty1 RT; parameters: method as in PMID 10816427, PMID 11577982; details: ratio of ddGTP/GTP 0.2; cited from earlier work
[11] = Homo sapiens, HeLa, 5 μM, control = 1.0, normalized to cell viability, read-out: Relative retrotransposition efficiency
[12] = Homo sapiens, HeLa, 50 μM, control = 1.0, normalized to cell viability, read-out: Relative retrotransposition efficiency
[13] = 50 μM, control = 1.0, normalized to cell viability

SMILES: Nc1ccn([C@H]2CS[C@@H](CO)O2)c(=O)n1 [3TC, 2',3'-dideoxy-3'-thiacytidine]
activity at 5 µM [1, 11]: 8 ± 3%
activity at 50 µM [1, 12]: 3 ± 3%

SMILES: Nc1ccn([C@@H]2CS[C@H](COP(=O)(O)OP(=O)(O)OP(=O)(O)O)O2)c(=O)n1 [3TCTP, 2',3'-dideoxy-3'-thiacytidine triphosphate]
increase of Ty1 RT activity [2]: up to 40%
IC50 [3]: 18.6 nM
Ki [3]: 12.9 ± 0.16 nM

SMILES: Nc1nc(NC2CC2)c2ncn(C3C=C[C@H](CO)C3)c2n1 (stereo partly drawn) [ABC, [(1R)-4-[2-amino-6-(cyclopropylamino)purin-9-yl]-1-cyclopent-2-enyl]methanol]
Relative retrotransposition efficiency ([4]; 5 μM): 0.80 ± 0.05
Relative retrotransposition efficiency ([4]; 50 μM): 0.15 ± 0.03
activity at 5 µM [1, 11]: 74 ± 6%
activity at 50 µM [1, 12]: 20 ± 4%

SMILES: Cc1cn([C@H]2C[C@H](N=[N+]=[N-])[C@@H](CO)O2)c(=O)[nH]c1=O [AZT, azidothymidine]
concentration completely inhibiting HIV-1 production [5]: 1 to 3 µM
Relative retrotransposition efficiency ([4]; 5 μM): 0.75 ± 0.08
Relative retrotransposition efficiency ([4]; 50 μM): 0.16 ± 0.02
activity at 5 µM [1, 11]: 62 ± 6%
activity at 50 µM [1, 12]: 23 ± 4%

increase of Ty1 RT activity [2]: up to 40%
IC50 [3]: 19.8 nM
Ki [3]: 16.4 ± 4.21 nM
SMILES: Cc1cn([C@H]2C[C@H](N=[N+]=[N-])[C@@H](CO[P@](=O)(O)O[P@](=O)(O)OP(=O)(O)O)O2)c(=O)[nH]c1=O [AZTTP, azidothymidine triphosphate]

SMILES: CC(C)Nc1cccnc1N1CCN(C(=O)c2cc3cc(NS(C)(=O)=O)ccc3[nH]2)CC1 [DLV, delavirdine]
concentration causing massive HeLa cell death [6]: 100 µM
Relative retrotransposition efficiency ([4]; 5 μM): 0.60 ± 0.05
Relative retrotransposition efficiency ([4]; 50 μM): 0.02 ± 0.01
activity at 5 µM [1, 11]: 63%
activity at 50 µM [1, 12]: 28 ± 3%
inhibition at 50 µM ([1]; Homo sapiens, HeLa, 50 μM, read-out: inhibition of L1 retrotransposition efficiency): ~72%
IC50 [7]: 260 nM
high concentration at which Ty1 RT was inhibited [2]: 50 µM
high concentration at which L1 RT was inhibited [3]: 50 µM

SMILES: O=C1Nc2ccc(Cl)cc2[C@@](C#CC2CC2)(C(F)(F)F)O1 [EFV, efavirenz]
concentration causing massive HeLa cell death [6]: 50 µM
activity at 5 µM [1, 11]: 28 ± 2%
inhibition at 5 µM ([1]; Homo sapiens, HeLa, 5 μM, read-out: inhibition of L1 retrotransposition efficiency): ~72%
high concentration at which Ty1 RT was inhibited [2]: 500 µM
high concentration at which L1 RT was inhibited [3]: 500 µM
activity against a variety of polymerases [8]: inactive

SMILES: Nc1nc(=O)n(C2CSC(CO)O2)cc1F (stereo not shown) [FTC, 4-amino-5-fluoro-1-[2-(hydroxymethyl)-1,3-oxathiolan-5-yl]-pyrimidin-2-one]
Relative retrotransposition efficiency ([4]; 5 μM): 0.34 ± 0.01
Relative retrotransposition efficiency ([4]; 50 μM): 0.26 ± 0.04
activity at 5 µM [1, 11]: 25 ± 1%
activity at 50 µM [1, 12]: 12 ± 4%

SMILES: Cc1ccnc2c1NC(=O)c1cccnc1N2C1CC1 [NVP, nevirapine]
activity at 5 µM [1, 11]: 108 ± 13%
activity at 50 µM [1, 12]: 89 ± 3%
activity at 200 µM ([1]; Homo sapiens, HeLa, 200 μM, control = 1.0, normalized to cell viability, read-out: Relative retrotransposition efficiency): 89%
activity at 400 µM ([1]; Homo sapiens, HeLa, 400 μM, control = 1.0, normalized to cell viability, read-out: Relative retrotransposition efficiency): 87 ± 3%
decrease of L1 transposition frequency ([1]; at all tested concentrations): ~ 10%
inhibition of Ty1 RT activity ([2]; concentrations as high as 500 μM): no inhibition
inhibition of L1 RT activity [3]: no inhibition
inhibition of L1 RT activity ([3]; listed as nevirapine): no effect
activity against a variety of polymerases [8]: inactive
reduction of susceptibility in HIV-1 mutants [9]: more than 50 fold

SMILES: Cc1cn([C@H]2C=C[C@@H](CO)O2)c(=O)[nH]c1=O [d4T, 2'-3'-didehydro-2'-3'-dideoxythymidine]
Relative retrotransposition efficiency ([4]; 5 μM): 0.28 ± 0.05
Relative retrotransposition efficiency ([4]; 50 μM): 0.01 ± 0.02
Relative retrotransposition efficiency ([1]; 5 μM, control = 1.0, normalized to cell viability): 0.50 ± 0.05
Relative retrotransposition efficiency [1, 13]: 0.05 ± 0.04

IC50 [3]: 0.88 nM
Ki [3]: 0.73 ± 0.22 nM
SMILES: Cc1cn([C@H]2C=C[C@@H](COP(=O)(O)OP(=O)(O)OP(=O)(O)O)O2)c(=O)[nH]c1=O [d4TTP, 2'-3'-didehydro-2'-3'-dideoxythymidine triphosphate]

Km ([3]; poly (rI)-oligo (dC)12-18, no inhibitor, read-out: Km value for dCTP substrate): 0.38 µM
SMILES: Nc1ccn([C@H]2C[C@H](O)[C@@H](COP(=O)(O)OP(=O)(O)OP(=O)(O)O)O2)c(=O)n1 [dCTP]

Km ([3]; poly (rA)-oligo (dT)12-18, no inhibitor, read-out: Km value for dTTP): 0.83 µM
SMILES: Cc1cn([C@H]2C[C@H](O)[C@@H](COP(=O)(O)OP(=O)(O)OP(=O)(O)O)O2)c(=O)[nH]c1=O [dTTP]

SMILES: Nc1ccn([C@H]2CC[C@@H](CO)O2)c(=O)n1 [ddC, 2'-3'-dideoxycytidine]
Relative retrotransposition efficiency ([4]; 5 μM): <0.0025^c
Relative retrotransposition efficiency ([4]; 50 μM): <0.0025^c
Relative retrotransposition efficiency [1, 13]: <0.005^c

increase of Ty1 RT activity [2]: up to 40%
IC50 [3]: 1.04 nM
Ki [3]: 0.72 ± 0.16 nM
SMILES: Nc1ccn([C@H]2CC[C@@H](COP(=O)(O)OP(=O)(O)OP(=O)(O)O)O2)c(=O)n1 [ddCTP, 2'-3'-dideoxycytidine triphosphate]

SMILES: Nc1nc2c(ncn2[C@H]2CC[C@@H](COP(=O)(O)OP(=O)(O)OP(=O)(O)O)O2)c(=O)[nH]1 [ddGTP]
decrease of Ty1 RT activity [10]: 90%

SMILES: O=c1[nH]cnc2c1ncn2[C@H]1CC[C@@H](CO)O1 [ddI, 2'-3'-dideoxyinosine]
Relative retrotransposition efficiency ([4]; 5 μM): <0.0025^c
Relative retrotransposition efficiency ([4]; 50 μM): <0.0025^c
Relative retrotransposition efficiency [1, 13]: <0.005^c
